Measured values: patent publication US9867833B2, “Serine/threonine kinase inhibitors” (GENENTECH, INC., priority 2013, dated 2018)

Each compound was assayed against human ERK-2 (Mitogen Activated Kinase 1) (Homo sapiens (Human), UniProt P28482) (assay: ERK-2 Enzymatic Assay). Settings: human ERK-2 enzyme 5 nM, 25 μM ATP, S/T17 peptide substrate; isomer = configuration of CR2R3.
Format: biochemical
Experimental: Compounds were tested in an enzymatic assay using human ERK-2 (Mitogen Activated Kinase 1), recombinantly expressed as an n-terminal 6-His fusion protein in E. coli and corresponding to aa 8-360. […] Test compounds were diluted in DMSO in 3-fold serial dilutions at 100× final concentrations. […] The data collected from each well was fit to a straight line, and the resulting rates were used to calculate percent of control. Percent of control was plotted against compound concentration, and IC50 values were determined using a four-parameter fit.

Sequence of human ERK-2 (Mitogen Activated Kinase 1) (P28482 8-360): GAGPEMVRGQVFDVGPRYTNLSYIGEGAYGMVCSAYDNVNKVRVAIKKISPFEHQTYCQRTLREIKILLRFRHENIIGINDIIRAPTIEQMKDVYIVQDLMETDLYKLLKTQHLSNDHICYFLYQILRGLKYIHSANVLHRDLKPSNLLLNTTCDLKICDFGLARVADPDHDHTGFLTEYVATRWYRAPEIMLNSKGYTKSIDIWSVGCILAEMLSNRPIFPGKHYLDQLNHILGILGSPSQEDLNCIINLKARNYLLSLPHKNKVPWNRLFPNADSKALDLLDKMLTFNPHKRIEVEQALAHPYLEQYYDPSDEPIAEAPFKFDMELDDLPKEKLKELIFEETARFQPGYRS

| SMILES | IC50 |
| --- | --- |
| Cn1nccc1Nc1cc(-c2cc3n4c(nnc4c2)[C@H](c2ccccc2)CN3)ccn1 (single isomer, unassigned) [(R) I-4, N-(1-methyl-1H-pyrazol-5-yl)-4-(3-phenyl-4,5-dihydro-3H-1,2,2a^1,5-tetraazaacenaphthylen-7-yl)pyridin-2-amine] | 43.1 nM |
| Cn1nccc1Nc1cc(-c2cc3n4c(nnc4c2)C(Cc2ccccc2Cl)CCO3)ccn1 (single isomer, unassigned) [(R) I-30, 4-(9-(2-chlorobenzyl)-8,9-dihydro-7H-6-oxa-1,2,2a^1-triazabenzo[cd]azulen-4-yl)-N-(1-methyl-1H-pyrazol-5-yl)pyridin-2-amine] | 2.55 nM |
| Cn1nccc1Nc1cc(-c2cc3n4c(nnc4c2)C(Cc2ccccc2Cl)CCO3)ccn1 (single isomer, unassigned) [(R) I-60, 4-(9-(2-chlorobenzyl)-8,9-dihydro-7H-6-oxa-1,2,2a^1-triazabenzo[cd]azulen-4-yl)-N-(1-methyl-1H-pyrazol-5-yl)pyridin-2-amine] | 2.55 nM |
| CCC(C)CC1COc2cc(-c3ccnc(Nc4ccnn4C)n3)cc3nnc1n23 (single isomer, unassigned) [(S) I-52, N-(1-methyl-1H-pyrazol-5-yl)-4-(3-(2-methylbutyl)-3,4-dihydro-5-oxa-1,2,2a^1-triazaacenaphthylen-7-yl)pyrimidin-2-amine] | 93.4 nM |
| Cn1nccc1Nc1cc(-c2cc3n4c(nnc4c2)C(Cc2ccc(Cl)cc2)CO3)ccn1 (single isomer, unassigned) [(S) I-55, 4-(3-(4-chlorobenzyl)-3,4-dihydro-5-oxa-1,2,2a^1-triazaacenaphthylen-7-yl)-N-(1-methyl-1H-pyrazol-5-yl)pyridin-2-amine] | 12.5 nM |
| CCCC1COc2cc(-c3ccnc(Nc4ccnn4C)n3)cc3nnc1n23 (single isomer, unassigned) [(S) I-101, N-(1-methyl-1H-pyrazol-5-yl)-4-(3-propyl-3,4-dihydro-5-oxa-1,2,2a^1-triazaacenaphthylen-7-yl)pyrimidin-2-amine] | 19.5 nM |
| Cn1nccc1Nc1nccc(-c2cc3n4c(nnc4c2)[C@H](c2ccccc2)CN3)n1 [(R) I-1, N-(1-methyl-1H-pyrazol-5-yl)-4-(3-phenyl-4,5-dihydro-3H-1,2,2a^1,5-tetraazaacenaphthylen-7-yl)pyrimidin-2-amine] | 179 nM |
| Cn1nccc1Nc1cc(-c2cc3n4c(ncc4c2)[C@H](Cc2ccc(Cl)cc2)CN3)ccn1 [(R) I-8, 4-(3-(4-chlorobenzyl)-4,5-dihydro-3H-1,2,2a^1,5-tetraazaacenaphthylen-7-yl)-N-(1-methyl-1H-pyrazol-5-yl)pyridin-2-amine] | 1.55 nM |
| CN1C[C@@H](Cc2ccccc2)c2nnc3cc(-c4ccnc(Nc5ccnn5C)n4)cc1n23 [(R) I-9, 4-(3-benzyl-5-methyl-4,5-dihydro-3H-1,2,2a^1,5-tetraazaacenaphthylen-7-yl)-N-(1-methyl-1H-pyrazol-5-yl)pyrimidin-2-amine] | 5.04 nM |
| CC(C)C[C@@H]1CNc2cc(-c3ccnc(Nc4ccnn4C)n3)cc3nnc1n23 [(R) I-10, 4-(3-isobutyl-4,5-dihydro-3H-1,2,2a^1,5-tetraazaacenaphthylen-7-yl)-N-(1-methyl-1H-pyrazol-5-yl)pyrimidin-2-amine] | 2.75 nM |
| CC(C)C[C@@H]1CN(C)c2cc(-c3ccnc(Nc4ccnn4C)c3)cc3nnc1n23 [(R) I-20, 4-(3-isobutyl-5-methyl-4,5-dihydro-3H-1,2,2a^1,5-tetraazaacenaphthylen-7-yl)-N-(1-methyl-1H-pyrazol-5-yl)pyridin-2-amine] | 48.7 nM |
| CN1C(=O)C[C@@H](Cc2ccc(Cl)cc2)c2nnc3cc(-c4ccnc(Nc5ccnn5C)n4)cc1n23 [(R) I-22, 9-(4-chlorobenzyl)-6-methyl-4-(2-((1-methyl-1H-pyrazol-5-yl)amino)pyrimidin-4-yl)-8,9-dihydro-1,2,2a^1,6-tetraazabenzo[cd]azulen-7(6H)-one] | 88.2 nM |
| COc1ccc(C[C@@H]2CNc3cc(-c4ccnc(Nc5ccnn5C)n4)cc4nnc2n34)cn1 [(R) I-24, 4-(3-((6-methoxypyridin-3-yl)methyl)-4,5-dihydro-3H-1,2,2a^1,5-tetraazaacenaphthylen-7-yl)-N-(1-methyl-1H-pyrazol-5-yl)pyrimidin-2-amine] | 1.85 nM |

Now those with a lower IC50, led by results:

| IC50 | SMILES |
| --- | --- |
| < 0.02 nM | CCC(C)CC1COc2cc(-c3ccnc(Nc4ccnn4C)n3)cc3nnc1n23 (single isomer, unassigned) [(R) I-52, N-(1-methyl-1H-pyrazol-5-yl)-4-(3-(2-methylbutyl)-3,4-dihydro-5-oxa-1,2,2a^1-triazaacenaphthylen-7-yl)pyrimidin-2-amine] |
| < 0.02 nM | Cn1nccc1Nc1cc(-c2cc3n4c(nnc4c2)C(Cc2ccc(Cl)cc2)CO3)ccn1 (single isomer, unassigned) [(R) I-55, 4-(3-(4-chlorobenzyl)-3,4-dihydro-5-oxa-1,2,2a^1-triazaacenaphthylen-7-yl)-N-(1-methyl-1H-pyrazol-5-yl)pyridin-2-amine] |
| 0.038 nM | CCCC1COc2cc(-c3ccnc(Nc4ccnn4C)n3)cc3nnc1n23 (single isomer, unassigned) [(R) I-101, N-(1-methyl-1H-pyrazol-5-yl)-4-(3-propyl-3,4-dihydro-5-oxa-1,2,2a^1-triazaacenaphthylen-7-yl)pyrimidin-2-amine] |
| < 0.02 nM | Cn1nccc1Nc1cc(-c2cc3n4c(nnc4c2)[C@@H](c2ccccc2)CN3)ccn1 (single isomer, unassigned) [(S) I-4, N-(1-methyl-1H-pyrazol-5-yl)-4-(3-phenyl-4,5-dihydro-3H-1,2,2a^1,5-tetraazaacenaphthylen-7-yl)pyridin-2-amine] |
| < 0.02 nM | Cn1nccc1Nc1cc(-c2cc3n4c(nnc4c2)C(Cc2ccccc2Cl)CCO3)ccn1 (single isomer, unassigned) [(S) I-60, 4-(9-(2-chlorobenzyl)-8,9-dihydro-7H-6-oxa-1,2,2a^1-triazabenzo[cd]azulen-4-yl)-N-(1-methyl-1H-pyrazol-5-yl)pyridin-2-amine] |
| 0.38 nM | Cn1nccc1Nc1nccc(-c2cc3n4c(nnc4c2)[C@H](Cc2ccccc2)CN3)n1 [(R) I-2, (R)-4-(3-benzyl-4,5-dihydro-3H-1,2,2a^1,5-tetraazaacenaphthylen-7-yl)-N-(1-methyl-1H-pyrazol-5-yl)pyrimidin-2-amine] |
| 0.408 nM | Cn1nccc1Nc1nccc(-c2cc3n4c(nnc4c2)[C@H](Cc2ccc(Cl)cc2)CN3)n1 [(R) I-5, 4-(3-(4-chlorobenzyl)-4,5-dihydro-3H-1,2,2a^1,5-tetraazaacenaphthylen-7-yl)-N-(1-methyl-1H-pyrazol-5-yl)pyrimidin-2-amine] |
| 0.707 nM | Cn1nccc1Nc1cc(-c2cc3n4c(nnc4c2)[C@H](Cc2ccccc2)CN3)ccn1 [(R) I-7, 4-(3-benzyl-4,5-dihydro-3H-1,2,2a^1,5-tetraazaacenaphthylen-7-yl)-N-(1-methyl-1H-pyrazol-5-yl)pyridin-2-amine] |
| 0.514 nM | COc1ccc(C[C@@H]2CNc3cc(-c4ccnc(Nc5ccnn5C)n4)cc4nnc2n34)cc1 [(R) I-11, 4-(3-(4-methoxybenzyl)-4,5-dihydro-3H-1,2,2a^1,5-tetraazaacenaphthylen-7-yl)-N-(1-methyl-1H-pyrazol-5-yl)pyrimidin-2-amine] |
| 0.311 nM | COc1ccc(C[C@@H]2CNc3cc(-c4ccnc(Nc5ccnn5C)n4)cc4nnc2n34)cc1F [(R) I-12, 4-(3-(3-fluoro-4-methoxybenzyl)-4,5-dihydro-3H-1,2,2a^1,5-tetraazaacenaphthylen-7-yl)-N-(1-methyl-1H-pyrazol-5-yl)pyrimidin-2-amine] |
| 0.0441 nM | Cn1nccc1Nc1nccc(-c2cc3n4c(nnc4c2)[C@H](Cc2ccc(Cl)c(F)c2)CN3)n1 [(R) I-14, 4-(3-(4-chloro-3-fluorobenzyl)-4,5-dihydro-3H-1,2,2a^1,5-tetraazaacenaphthylen-7-yl)-N-(1-methyl-1H-pyrazol-5-yl)pyrimidin-2-amine] |
| 0.02 nM | Cn1nccc1Nc1nccc(-c2cc3n4c(nnc4c2)[C@@H](Cc2ccccc2)CO3)n1 [(R) I-15, 4-(3-benzyl-3,4-dihydro-5-oxa-1,2,2a^1-triazaacenaphthylen-7-yl)-N-(1-methyl-1H-pyrazol-5-yl)pyrimidin-2-amine] |
| 0.036 nM | COc1ccc(C[C@@H]2CN(C)c3cc(-c4ccnc(Nc5ccnn5C)c4)cc4nnc2n34)cc1 [(R) I-18, 4-(3-(4-methoxybenzyl)-5-methyl-4,5-dihydro-3H-1,2,2a^1,5-tetraazaacenaphthylen-7-yl)-N-(1-methyl-1H-pyrazol-5-yl)pyridin-2-amine] |
| 0.731 nM | Cn1nccc1Nc1nccc(-c2cc3n4c(nnc4c2)[C@H](Cc2ccc(F)cc2)CN3)n1 [(R) I-21, 4-(3-(4-fluorobenzyl)-4,5-dihydro-3H-1,2,2a^1,5-tetraazaacenaphthylen-7-yl)-N-(1-methyl-1H-pyrazol-5-yl)pyrimidin-2-amine] |
| 0.109 nM | Cn1nccc1Nc1nccc(-c2cc3n4c(nnc4c2)[C@H](COCc2ccccc2)CCO3)n1 [(R) I-29, 4-(9-((benzyloxy)methyl)-8,9-dihydro-7H-6-oxa-1,2,2a^1-triazabenzo[cd]azulen-4-yl)-N-(1-methyl-1H-pyrazol-5-yl)pyrimidin-2-amine] |
| 1.35 nM | CN1C[C@@H](Cc2ccc(F)cc2)c2nnc3cc(-c4ccnc(Nc5ccnn5C)n4)cc1n23 [(R) I-31, 4-(3-(4-fluorobenzyl)-5-methyl-4,5-dihydro-3H-1,2,2a^1,5-tetraazaacenaphthylen-7-yl)-N-(1-methyl-1H-pyrazol-5-yl)pyrimidin-2-amine] |
| 0.69 nM | Cn1nccc1Nc1nccc(-c2cc3n4c(nnc4c2)[C@H](Cc2ccc(Cl)cc2)CCO3)n1 [(R) I-36, 4-(9-(4-chlorobenzyl)-8,9-dihydro-7H-6-oxa-1,2,2a^1-triazabenzo[cd]azulen-4-yl)-N-(1-methyl-1H-pyrazol-5-yl)pyrimidin-2-amine] |
